Data published in patent US20210276977A1, “BICYCLIC INHIBITORS OF HISTONE DEACETYLASE” (Alkermes, Inc., priority 2018, published 2021).

Assays:
Full length Human HDAC2 = biological target: T1, Full length Human HDAC2 (Homo sapiens, UniProt Q92769); test: HDAC2 enzymatic assay (deacetylation of FAM-labeled peptide substrate, microfluidic electrophoresis); type: biochemical; settings: for IC50: recombinant enzymatic assay
T1 construct: Full length Human HDAC2; FLAG (C); host or cells: baculovirus expression system
T1 sequence (Q92769 whole entry): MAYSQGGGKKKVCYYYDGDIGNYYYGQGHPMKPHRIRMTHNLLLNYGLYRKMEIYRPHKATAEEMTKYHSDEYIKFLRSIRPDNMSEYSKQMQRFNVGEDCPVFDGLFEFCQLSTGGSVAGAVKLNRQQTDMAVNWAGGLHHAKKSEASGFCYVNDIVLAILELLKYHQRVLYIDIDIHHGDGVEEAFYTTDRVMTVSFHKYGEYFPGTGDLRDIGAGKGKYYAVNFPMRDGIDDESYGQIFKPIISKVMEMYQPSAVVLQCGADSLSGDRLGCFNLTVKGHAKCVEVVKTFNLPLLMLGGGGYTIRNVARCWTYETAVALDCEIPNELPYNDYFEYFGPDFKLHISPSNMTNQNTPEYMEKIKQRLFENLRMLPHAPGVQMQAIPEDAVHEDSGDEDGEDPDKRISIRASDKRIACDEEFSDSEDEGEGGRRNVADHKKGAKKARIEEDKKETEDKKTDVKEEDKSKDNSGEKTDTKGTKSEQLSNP
Experimental: (§1) HDAC2 and HDAC1 Enzymatic Assay (HDAC2 and HDAC1 IC50 Data)
(§2) The following describes an assay protocol for measuring the deacetylation of a peptide substrate by HDAC2 or HDAC1.
(§3) HD AC protein composition and respective substrate peptides are summarized below.
(§4) HD AC reactions are assembled in 384 well plates (Greiner) in a total volume of 20 μL as following:
(§5) HDAC proteins are pre-diluted in the assay buffer comprising: 100 mM HEPES, pH 7.5, 0.1% BSA, 0.01% Triton X-100, 25 mM KCl and dispensed into 384 well plate (10 uL per well).
(§6) Test compounds are serially pre-diluted in DMSO and added to the protein samples by acoustic dispensing (Labcyte Echo). Concentration of DMSO is equalized to 1% in all samples.
(§7) Control samples (0%-inhibition in the absence of inhibitor, DMSO only) and 100%-inhibition (in the absence of enzyme) are assembled in replicates of four and used to calculate the %-inhibition in the presence of compounds.
(§8) At this step compounds can be pre-incubated with enzyme if desired.
(§9) The reactions are initiated by addition of 10 uL of the FAM-labeled substrate peptide pre-diluted in the same assay buffer. Final concentration of substrate peptide is 1 uM (HDAC1-2).
(§10) The reactions are allowed to proceed at room temperature. Following incubation, the reactions are quenched by addition of 50 μL of termination buffer (100 mM HEPES, pH7.5, 0.01% Triton X-100, 0.1% SDS). Terminated plates are analyzed on a microfluidic electrophoresis instrument (Caliper LabChip® 3000, Caliper Life Sciences/Perkin Elmer) which enables electrophoretic separation of de-acetylated product from acetylated substrate. A change in the relative intensity of the peptide substrate and product is the parameter measured. Activity in each test sample is determined as the product to sum ratio (PSR): P/(S+P), where P is the peak height of the product, and S is the peak height of the substrate. Percent inhibition (Pinh) is determined using the following equation: Pinh=(PSR0% inh−PSRcompound)/(PSR0% inh−PSR100% inh)*100, in which: PSRcompound is the product/sum ratio in the presence of compound, PSR0% inh is the product/sum ratio in the absence of compound and the PSR100% inh is the product/sum ratio in the absence of the enzyme. To determine IC50 of compounds (50%-inhibition) the %-inh data (Pinh versus compound concentration) are fit by a 4 parameter sigmoid dose-response model using XLfit software (IDBS).
(§11) In the table, “A” indicates a IC50 value of less than 0.5 μM; “B” a IC50 value from 0.5 μM to 1.0 μM; “C” a IC50 value of greater than 1.0 μM and less than or equal to 2.0 μM; and “D” indicates an IC50 value of greater than 2.0 μM. NT=Not Tested.

Full length Human HDAC1 = biological target: T2, Full length Human HDAC1 (Homo sapiens, UniProt Q13547); test: HDAC1 enzymatic assay (deacetylation of FAM-labeled peptide substrate, microfluidic electrophoresis); type: biochemical; settings: for IC50: recombinant enzymatic assay
T2 construct: Full length Human HDAC1; His (C); FLAG (C); host or cells: baculovirus expression system
T2 sequence (Q13547 whole entry): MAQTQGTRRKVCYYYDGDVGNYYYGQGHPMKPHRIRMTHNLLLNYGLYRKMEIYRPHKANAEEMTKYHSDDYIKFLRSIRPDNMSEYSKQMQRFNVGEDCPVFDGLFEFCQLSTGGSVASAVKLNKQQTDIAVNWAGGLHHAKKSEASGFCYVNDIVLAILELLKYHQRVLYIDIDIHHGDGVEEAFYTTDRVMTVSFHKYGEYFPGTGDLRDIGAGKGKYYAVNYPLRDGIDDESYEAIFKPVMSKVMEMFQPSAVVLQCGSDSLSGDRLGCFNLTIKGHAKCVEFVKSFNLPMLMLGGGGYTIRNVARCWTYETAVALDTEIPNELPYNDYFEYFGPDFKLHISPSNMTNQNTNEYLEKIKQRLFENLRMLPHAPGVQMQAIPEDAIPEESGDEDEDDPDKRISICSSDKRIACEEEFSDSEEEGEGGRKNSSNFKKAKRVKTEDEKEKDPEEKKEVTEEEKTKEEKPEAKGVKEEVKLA
Experimental: as §1, §2, §3, §4, §5, §6, §7, §8, §9, §10, §11

HDAC2 = biological target: T3, HDAC2 (Homo sapiens, UniProt Q92769); test: HDAC2 Enzymatic Inhibition Assay in SH-SY5Y Cell Lysate with an Exogenous Substrate (HDAC-Glo 2); type: cell-based; settings: for IC50: SH-SY5Y cells
T3 construct: host or cells: SH-SY5Y cells
T3 sequence (Q92769 whole entry): as the sequence (Q92769 whole entry) above
Experimental: HDAC2 Enzymatic Inhibition Assay in SH-SY5Y Cell Lysate with an Exogenous Substrate
SH-SY5Y cells (Sigma) were cultured in Eagle's Modified Essential Medium supplemented with 10% fetal bovine serum and pen/strep. Twenty-four hours prior to compound dosing 20 uL of cells were plated in white 384 well plates at a density of 1,500 cells/well. Compounds were serially diluted in neat DMSO and then diluted 1:100 v/v into media without FBS and mixed. Media was removed from the plated cells and the diluted compounds in serum free media (1% v/v final DMSO) were added and incubated at 37° C. for five hours. Ten uL of HDAC-Glo 2 reagent with 0.1% Triton X-100 was then added, the plate was mixed and allowed to develop at room temperature for 100 minutes. Plates were then read with a Spectramax LMax luminometer employing a 0.4 s integration time. Dose response curves were constructed with normalized data where CI-994 at 100 uM was defined as 100% inhibition and DMSO alone as 0% inhibition.
as §11

[1] = versus matched Comparator with heteroaromatic ring directly linked to azetidine
[2] = five hours incubation, Table 3, class symbols

SMILES | IC50 (Full length Human HDAC2; Table 2, class symbols) [µM] | IC50 (Full length Human HDAC1; Table 2, class symbols) [µM] | IC50 (HDAC2; [2]) [µM] | other results
Nc1ccc(-c2ccc(F)cc2F)nc1NC(=O)N1CC(c2ncccn2)C1 [Comparator A, reference compound] |  |  |  | IC50 (Full length Human HDAC2; Table 4, numeric): 5.29 µM; IC50 (Full length Human HDAC1; Table 4, numeric): 4.58 µM; IC50 (HDAC2; Table 4, numeric): > 52 µM
Cc1ncc(C2CN(C(=O)Nc3nc(-c4ccc(F)cc4F)ccc3N)C2)cn1 [Comparator B, reference compound] |  |  |  | IC50 (Full length Human HDAC2; Table 4, numeric): > 30 µM; IC50 (Full length Human HDAC1; Table 4, numeric): > 30 µM; IC50 (HDAC2; Table 4, numeric): 30 µM
Cc1cnc(C2CN(C(=O)Nc3nc(-c4ccc(F)cc4F)ccc3N)C2)cn1 [Comparator C, reference compound] |  |  |  | IC50 (Full length Human HDAC2; Table 4, numeric): 13.5 µM; IC50 (Full length Human HDAC1; Table 4, numeric): 13.9 µM; IC50 (HDAC2; Table 4, numeric): 9.7 µM
Nc1ccc(-c2ccc(F)cc2F)nc1NC(=O)N1CC(Cc2ncccn2)C1 [Compound 1] | 0.5 to 1 | < 0.5 | < 0.5 | IC50 (Full length Human HDAC2; Table 4, numeric): 0.7 µM; fold more potent in the HDAC2 recombinant enzymatic assay than the corresponding comparator without spacer X (Full length Human HDAC2; [1]): > 7 fold; IC50 (Full length Human HDAC1; Table 4, numeric): 0.454 µM; fold more potent in the HDAC1 recombinant enzymatic assay than the corresponding comparator without spacer X (Full length Human HDAC1; [1]): 10 fold; IC50 (HDAC2; Table 4, numeric): 0.496 µM; fold more potent in the SH-SY5Y cell assay than the corresponding comparator without spacer X (HDAC2; [1]): 100 fold
Nc1ccc(-c2ccc(F)cc2F)nc1NC(=O)N1CC(Cc2ccccn2)C1 [Compound 2] | 0.5 to 1 | < 0.5 | 1 to 2 | 
Nc1ccc(-c2ccc(F)cc2F)nc1NC(=O)N1CC(Cc2cccnc2)C1 [Compound 3] | 1 to 2 | 0.5 to 1 | 1 to 2 | 
Nc1ccc(-c2ccc(F)cc2F)nc1NC(=O)N1CC(Cc2ccncc2)C1 [Compound 4] | > 2 | > 2 | 1 to 2 | 
Cc1ccc(CC2CN(C(=O)Nc3nc(-c4ccc(F)cc4F)ccc3N)C2)cn1 [Compound 5] | 1 to 2 | 1 to 2 | > 2 | 
Cc1ncc(CC2CN(C(=O)Nc3nc(-c4ccc(F)cc4F)ccc3N)C2)cn1 [Compound 6] | > 2 | > 2 | 1 to 2 | IC50 (Full length Human HDAC2; Table 4, numeric): 2.8 µM; IC50 (Full length Human HDAC1; Table 4, numeric): 2.26 µM; IC50 (HDAC2; Table 4, numeric): 1.56 µM
Cc1cnc(CC2CN(C(=O)Nc3nc(-c4ccc(F)cc4F)ccc3N)C2)nc1 [Compound 7] | > 2 | > 2 | 1 to 2 | 
Nc1ccc(-c2ccc(F)cc2F)nc1NC(=O)N1CC(Cc2ccn3cncc3c2)C1 [Compound 8] |  |  | > 2 | 
COCc1ccc(CC2CN(C(=O)Nc3nc(-c4ccc(F)cc4F)ccc3N)C2)cn1 [Compound 9] | > 2 | 1 to 2 | > 2 | 
Cc1cc(CC2CN(C(=O)Nc3nc(-c4ccc(F)cc4F)ccc3N)C2)nc(C)n1 [Compound 10] |  |  | > 2 | 
Cc1ccnc(CC2CN(C(=O)Nc3nc(-c4ccc(F)cc4F)ccc3N)C2)n1 [Compound 11] | 0.5 to 1 | 0.5 to 1 | 0.5 to 1 | 
Nc1ccc(-c2ccc(F)cc2F)nc1NC(=O)N1CC(Cc2cnccn2)C1 [Compound 12] | 0.5 to 1 | 0.5 to 1 | 1 to 2 | 
Cc1cncc(CC2CN(C(=O)Nc3nc(-c4ccc(F)cc4F)ccc3N)C2)n1 [Compound 13] | 1 to 2 | 1 to 2 | 1 to 2 | 
Cc1cnc(CC2CN(C(=O)Nc3nc(-c4ccc(F)cc4F)ccc3N)C2)cn1 [Compound 14] | 0.5 to 1 | < 0.5 | 0.5 to 1 | IC50 (Full length Human HDAC2; Table 4, numeric): 0.583 µM; IC50 (Full length Human HDAC1; Table 4, numeric): 0.406 µM; IC50 (HDAC2; Table 4, numeric): 0.687 µM
Cc1nccc(CC2CN(C(=O)Nc3nc(-c4ccc(F)cc4F)ccc3N)C2)n1 [Compound 15] | > 2 | > 2 | > 2 | 
Cc1nccnc1CC1CN(C(=O)Nc2nc(-c3ccc(F)cc3F)ccc2N)C1 [Compound 16] | 1 to 2 | 0.5 to 1 | 0.5 to 1 | 
COCc1cccc(CC2CN(C(=O)Nc3nc(-c4ccc(F)cc4F)ccc3N)C2)n1 [Compound 17] |  |  | > 2 | 
COCc1cc(CC2CN(C(=O)Nc3nc(-c4ccc(F)cc4F)ccc3N)C2)ccn1 [Compound 18] |  |  | > 2 | 
Cc1cc(CC2CN(C(=O)Nc3nc(-c4ccc(F)cc4F)ccc3N)C2)ncn1 [Compound 19] | 1 to 2 | 1 to 2 | 0.5 to 1 | 
Nc1ccc(-c2ccc(F)cc2F)nc1NC(=O)N1CC(Cc2cncnc2)C1 [Compound 20] |  |  | > 2 | 
Nc1ccc(-c2ccc(F)cc2F)nc1NC(=O)N1CC(Cc2ncc(F)cn2)C1 [Compound 21] | 0.5 to 1 | < 0.5 | 0.5 to 1 | 

SMILES | IC50 (Full length Human HDAC2; Table 2, class symbols) [µM] | IC50 (Full length Human HDAC1; Table 2, class symbols) [µM] | IC50 (HDAC2; [2]) [µM] | other results
Nc1ccc(-c2ccc(F)cc2F)nc1NC(=O)N1CC(Cc2ncco2)C1 [Compound 22] | 0.5 to 1 | 0.5 to 1 | 0.5 to 1 | 
Nc1ccc(-c2ccc(F)cc2F)nc1NC(=O)N1CC(Cc2cccnn2)C1 [Compound 23] | 0.5 to 1 | 1 to 2 | 0.5 to 1 | 
Cc1cnc(CC2CN(C(=O)Nc3nc(-c4ccc(F)cc4F)ccc3N)C2)s1 [Compound 25] |  |  | > 2 | 
Nc1ccc(-c2ccc(F)cc2F)nc1NC(=O)N1CC(Oc2cccnc2)C1 [Compound 28] |  |  | > 2 | 
Nc1ccc(-c2ccc(F)cc2F)nc1NC(=O)N1CC(OCc2ccccn2)C1 [Compound 29] |  |  | > 2 | 
Nc1ccc(-c2ccc(F)cc2F)nc1NC(=O)N1CC(Cc2ccncn2)C1 [Compound 32] |  |  | 1 to 2 | 
Nc1ccc(-c2ccc(F)cc2F)nc1NC(=O)N1CC(C(F)c2ncc(F)cn2)C1 (centres unmarked) [Compound 41] |  |  | 1 to 2 | 
Nc1ccc(-c2ccc(F)cc2F)nc1NC(=O)N1CC(Cc2cccc3nccn23)C1 [Compound 48] |  |  | > 2 | 
Nc1ccc(-c2ccc(F)cc2F)nc1NC(=O)N1CC(Cc2ccc(C(F)(F)F)cn2)C1 [Compound 49] |  |  | > 2 | 
Cc1cc(C)nc(CC2CN(C(=O)Nc3nc(-c4ccc(F)cc4F)ccc3N)C2)n1 [Compound 50] |  |  | > 2 | 
Cc1cn(CC2CN(C(=O)Nc3nc(-c4ccc(F)cc4F)ccc3N)C2)cn1 [Compound 51] |  |  | > 2 | 
Cc1cncn1CC1CN(C(=O)Nc2nc(-c3ccc(F)cc3F)ccc2N)C1 [Compound 52] |  |  | > 2 | 
Cc1ccn(CC2CN(C(=O)Nc3nc(-c4ccc(F)cc4F)ccc3N)C2)n1 [Compound 53] |  |  | > 2 | 
Cc1ccnn1CC1CN(C(=O)Nc2nc(-c3ccc(F)cc3F)ccc2N)C1 [Compound 54] |  |  | 1 to 2 | 
Cc1cnc(CC2CN(C(=O)Nc3nc(-c4ccc(F)cc4F)ccc3N)C2)o1 [Compound 55] |  |  | > 2 | 
CCC(c1ncccn1)C1CN(C(=O)Nc2nc(-c3ccc(F)cc3F)ccc2N)C1 (centres unmarked) [Compound 56] |  |  | > 2 | 
CC(c1ncccn1)C1CN(C(=O)Nc2nc(-c3ccccc3F)ccc2N)C1 (centres unmarked) [Compound 58] |  |  | 1 to 2 | 
CC(F)(c1ncccn1)C1CN(C(=O)Nc2nc(-c3ccc(F)cc3F)ccc2N)C1 (centres unmarked) [Compound 60] |  |  | > 2 | 
Cc1cnc(CC2CN(C(=O)Nc3nc(-c4ccc(F)s4)ccc3N)C2)o1 [Compound 62] |  |  | > 2 | 
Cc1cnc(CC2CN(C(=O)Nc3nc(-c4ccc(F)cc4)ccc3N)C2)o1 [Compound 63] |  |  | 1 to 2 | 
Cc1cnc(CC2CN(C(=O)Nc3nc(-c4ccc(F)s4)ccc3N)C2)nc1 [Compound 67] |  |  | 0.5 to 1 | 
Nc1ccc(-c2ccc(F)cc2)nc1NC(=O)N1CC(C(F)(F)c2ccccn2)C1 [Compound 75] |  |  | > 2 | 
Nc1ccc(-c2ccc(F)cc2)nc1NC(=O)N1CC(Cc2ccc(C(F)(F)F)cn2)C1 [Compound 85] |  |  | > 2 | 
